Columns and labels:
[1] = system: Sox-2 and Nanog gene expression, human dermal fibroblasts; assay: VPA effect on Sox-2 and Nanog gene expression in human dermal fibroblasts (FIG. 17); type: cell-based; settings: VPA 5 mM, 4-6 days, multiple dermal fibroblast cell types
Protocol: FIG. 17 is a bar graph reporting the effects of VPA (5 mM) on gene expression of Oct-4, Sox-2 and Nanog in human dermal fibroblasts. Significance relative to control within each cell type: *p<0.05; **p<0.03; and ***p<0.01.
(§1) Quantitative RT-PCR. Expression of Oct-4 was determined by real-time RT-PCR. Briefly, total RNA was prepared from cultures using Trizol Reagent (Life Technologies, Gaithersburg, Md.) and RNeasy Mini kit (Qiagen; Valencia, Calif.) with DNase I digestion according to manufacturer's protocol. Total RNA (1 μg) from each sample was subjected to oligo(dT)-primed reverse transcription (Invitrogen; Carlsbad, Calif.). Real-time PCR reactions will be performed with PCR master mix on a 7300 real-time PCR system (Applied Biosystems; Foster City, Calif.). For each sample, 1 μl of diluted cDNA (1:10) will be added as template in PCR reactions. The expression level of Cot-4 was normalized to glyceraldehyde 3-phosphate-dehydrogenase (GAPD).
Pluripotency gene expression was increased in multiple dermal fibroblast cell types following exposure to VPA for 4-6 days. mRNA levels were determined by real time qRT-PCR and normalized with GAPDH.

[2] = system: first exon of the Oct-4 gene; assay: Bisulfite sequencing of the Oct-4 promoter/first exon; type: cell-based; settings: VPA-treated primary human lung cells
Protocol: (§2) Cell culture. Primary human lung cells were purchased from Cell Applications (San Diego, Calif.), and were maintained at 37° C. in 95% humidity and 5% CO2 in Dulbecco's modified eagle medium (DMEM, Hyclone) containing 10% fetal bovine serum (FBS, Hyclone) and 0.5% penicillin and streptomycin. Cells were grown in the presence of 1 mM VPA, 5 mM VPA or in the absence of VPA for three days.
Bisulfite Sequencing. Bisulfite sequencing is the use of bisulfite treatment of DNA to determine the pattern of methylation. Bisulfite sequencing is based on the fact that treatment of DNA with bisulfite converts cytosine residues to uracil, but leaves 5-methylcytosine residues unaffected. Bisulfite treatment thus introduces specific changes in the DNA sequence that depend on the methylation status of individual cytosine residues, yielding very high-resolution information about the methylation status of a segment of DNA.
Methylation of pluripotent gene promoters was analyzed by bisulfite sequencing. Briefly, DNA was purified by phenolchloroform-isoamylalcohol extraction. Bisulfite conversion was performed using the EZ DNA Methylation kit following the manufacturer's protocol (Zymo Research; Orange, Calif.). The conversion rate of all cytosines in non-CpG dinucleotides to uracils was 100%. Converted DNA was amplified by PCR using primers for human Oct3/4, Nanog, and SOX2. […]

[3] = system: Oct-4 expression, primary human lung cells; assay: Quantitative RT-PCR of Oct-4 in primary human lung cells grown with VPA; type: cell-based; settings: 5 mM VPA, three days, p<0.01
Protocol: as §2
as §1, with “Oct-4 and Nanog were” for “Oct-4 was”, “real-time RT-PCR for each culture condition (0 mM VPA, 1 mM VPA, and 5 mM VPA).” for “real-time RT-PCR.”, “of Oct-4 and Nanog” for “of Cot-4”, “to GAPD.” for “to glyceraldehyde 3-phosphate-dehydrogenase (GAPD).”

[4] = system: HDAC and DNMT1 gene expression, BJ dermal fibroblasts; assay: VPA effect on HDAC and DNMT1 gene expression in BJ dermal fibroblasts (FIG. 18); type: cell-based, human; settings: 500 μM VPA, 7 days, BJFs; HDAC1 p<0.01, SIRT4 p 0.05, DNMT1 p<0.005
Protocol: FIG. 18 is a bar graph reporting the effects of VPA (500 μM) on HDAC and DNMT1 gene expression in BJ dermal fibroblasts (obtained from ATCC).
FIG. 18 reports the effects of 500 μM VPA on HDAC and DNMT1 gene expression in BJFs. Cells were exposed to VPA for 7 days. […] Statistical significance was as follows: HDAC1 (p<0.01); SIRT4 (p, 0.05) and DNMT1 (p<0.005).

[5] = system: Oct-4 gene expression, HLFf; assay: Small molecules, Oct-4 gene expression by qRT-PCR (Table III), HLFf; type: cell-based, human; settings: dose 5 mM, Rx Time 5
[6] = system: stemness genes, primary human lung cells; assay: Human Embryonic Taqman Low Density Array (TLDA) analysis of stemness genes in VPA-treated cells; type: cell-based; settings: 5 mM VPA, three days
Protocol: as §2
Embryonic Taqman Low Density Array Analysis. Expression levels of several genes that contribute to a cell being pluripotentail (“stemness genes”) were determined using the Human Embryonic Taqman Low Density Array Analysis (TLDA). Several stemness genes were analyzed: GABRB3, LEFTB, NR6A1, PODXL, and PTEN. In addition, the expression level of the DNA methyl transferase DNMT3B was determined. The Applied Biosystems Human Embryonic TLDA, which contains 90 embryonic stem cell and developmental genes and 6 endogenous control genes, was used for quantitative real time RT-PCR to quantify relative expression levels (Applied Biosytems, Foster City, Calif.). Briefly, following reverse-transcription of RNA using the ABI High Capacity cDNA Reverse Transcription Kit (ABI; Foster City, Calif.), 150 ng sample cDNA in 50 μl nuclease-free water+50 μl ABI Universal Taqman 2×PCR Master Mix was pipetted into each port of the TLDA microfluidic card, and analyzed on the ABI 7900HT Fast Real Time PCR System. The ^ΔΔCT method was used to calculate relative quantities (fold change) in gene expression levels in treated cells relative to untreated control cells. The treated cells may also be compared to federally-approved human embryonic stem cells.

[7] = system: Oct-4 gene expression, HLFa; assay: Small molecules, Oct-4 gene expression by qRT-PCR (Table III), HLFa; type: cell-based, human; settings: dose 5 mM, Rx Time 5

CCCC(CCC)C(=O)O [VPA, valproic acid]
expression of Sox-2 and Nanog [1]: increase in expression | methylation of cytosines in the first exon of Oct-4 [2]: demethylation of two cytosines | expression of Oct4 up-regulated compared to control cells [3]: ~2.7 fold | HDAC1, SIRT4 and DNMT1 gene expression compared to control cells [4]: significantly u-regulated | Oct4 FC [5]: 5 | expression of DNA methyltransferase DNMT3B [6]: down-regulated | stemness-related genes not detected in control cells (FOXD3, NR5A2, TERT, LIFR, SFRP2, TFCP2L1, LIN28, SOX2, XIST) [6]: induced | expression of stemness genes GABRB3, LEFTB, NR6A1, PODXL, PTEN ([6]; n=three replicates): up-regulation | Oct4 FC [7]: 4

— patent publication US20110059526A1, “REPROGRAMMING A CELL BY INDUCING A PLURIPOTENT GENE THROUGH USE OF AN HDAC MODULATOR” (NUPOTENTIAL, INC., priority 2008, published 2011)
